Source: patent US7674456B2, “Breast cancer cell lines and uses thereof” (priority 2004, dated 2010)

Tested on: tumor cells from right chest wall lesion (mammary carcinoma cells)
Assay: Ex vivo drug response testing of fresh tumor specimen (DISC, MTT and redox assays)
Format: cell-based, human
Parameters: key to ASSAY RESULT: Sensitive: the drug inhibits the cell growth or proliferation of the cell to a greater degree than is expected for an appropriate control; Resistant: the drug inhibits the cell growth or proliferation of the cell to a lesser degree than is expected for an appropriate control
Details: for ASSAY RESULT: fresh tumor cells, compared with a database of assays of similar technical characteristics; for activity in vitro (in words): summary of the table
Experimental: An unfixed portion of the tumor was further analyzed for response to several drugs. A specimen consisted of 1 piece of yellow, white, and red tissue, obtained from the right chest wall lesion. The piece was soft and sticky in texture, measured 0.8×1.4 cm, and weighed 0.47 gm. The specimen was minced to individual pieces smaller than one mm with surgical scissors and digested for 1.3 hours with collagenase-DNAse. Viable tumor cells were enriched by Ficoll-diatriozate centrifugation. Cytospin slides were prepared, air-dried, and stained with Fast Green/Hamatoxyline-eosin. On this cytology preparation obtained from mechanically-dissociated, enzyme-digested tissue, there was a collection of somewhat pleomorphic tumor cells, consistent with mammary carcinoma cells. Tumor cells were present as loose cell clusters (60% of total tumor cells) and, less commonly, as discohesive single cells (40% of total tumor cells). The tumor cells measured 22-25 microns in diameter and had N/N+C ratios of 0.6-0.8. […] Nucleoli were variably prominent. There were no cells with large clear globular areas or secretory material within the cytoplasm. There was slight cytoplasmic and nuclear molding. Approximately 40% of the enriched tumor cell fraction consisted of normal-appearing connective tissue cells and inflammatory cells.
Cells were plated for testing in 3 different assay endpoints. In the DISC assay, the entire contents of the cell culture were cytocentrifuged onto permanent microscope slides and differentially stained to allow discrimination of normal and neoplastic cells and living and dead cells. […] The MTT assay measures mitochondrial metabolism in the entire cell culture. The redox assay measures total metabolic activity in the entire cell culture, using the Alamar Blue reagent to index the oxygen reduction potential of the culture medium. Because of the very low yield of viable tumor cells, only a small drug panel could be tested. Additionally, some drugs could be tested only in a single assay system.
At the conclusion of the culture period, there was 10% spontaneous attrition in viable tumor cell numbers. Formazan signal in the MTT assay was moderate, reflective of moderate cell metabolism, and allowing for an MTT assay of good quality. Percentage of tumor cells as a percentage of total viable cells at the conclusion of the culture was approximately 85. DISC and MTT assays were in reasonably good agreement. The overall technical quality of the assays was good, marred only by the low yield of tumor cells, which severely limited the scope of testing.
Results were compared with a database of assays which had similar technical characteristics, as the technical characteristics of these assays influence the in vitro results, along with the intrinsic drug resistance of the tumor cells. By controlling for technical characteristics such as spontaneous cell loss, metabolic signal at the conclusion of the culture, and tumor cell clustering, biological correlations are improved.

Compound: N.N.O=C([O-])C1(C(=O)[O-])CCC1.[Pt+2] [Carboplatin]
- ASSAY RESULT: Resistant
- activity in vitro (in words): poor activity

Compound: O=P1(N(CCCl)CCCl)NC(OO)CCO1 (centres unmarked) [Cyclophosphamide (4HC)]
- ASSAY RESULT: Sensitive
- activity in vitro (in words): above-average activity

Compound: COc1cccc2c1C(=O)c1c(O)c3c(c(O)c1C2=O)C[C@@](O)(C(=O)CO)C[C@@H]3O[C@H]1C[C@H](N)[C@H](O)[C@H](C)O1 [Doxorubicin]
- ASSAY RESULT: Intermediate

Compound: COc1cc([C@@H]2c3cc4c(cc3[C@@H](O[C@@H]3O[C@@H]5CO[C@@H](C)O[C@H]5[C@H](O)[C@H]3O)[C@H]3COC(=O)[C@H]23)OCO4)cc(OC)c1O [Etoposide]
- ASSAY RESULT: Sensitive
- activity in vitro (in words): above-average activity

Compound: O=c1[nH]cc(F)c(=O)[nH]1 [Fluorouracil]
- ASSAY RESULT: Intermediate

Compound: O=C1c2c(O)ccc(O)c2C(=O)c2c(NCCNCCO)ccc(NCCNCCO)c21 [Mitoxantrone]
- ASSAY RESULT: Intermediate

Compound: CC(=O)O[C@H]1C(=O)[C@@]2(C)[C@H]([C@H](OC(=O)c3ccccc3)[C@]3(O)C[C@H](OC(=O)[C@H](O)[C@@H](NC(=O)c4ccccc4)c4ccccc4)C(C)=C1C3(C)C)[C@]1(OC(C)=O)CO[C@@H]1C[C@@H]2O [Taxol (Paclitaxel), Paclitaxel]
- ASSAY RESULT: Sensitive
- activity in vitro (in words): best drug in vitro
- activity in vitro (in words) (listed as paclitaxel (Taxol)): above-average activity

Compound: CCC1=C[C@@H]2CN(C1)Cc1c([nH]c3ccccc13)[C@@](C(=O)OC)(c1cc3c(cc1OC)N(C)[C@H]1[C@@](O)(C(=O)OC)[C@H](OC(C)=O)[C@]4(CC)C=CCN5CC[C@]31[C@@H]54)C2 [Vinorelbine (Navelbine), Vinorelbine]
- ASSAY RESULT: Intermediate

Compound: Gemcitabine + Cisplatin
- ASSAY RESULT: Intermediate
